Laboratory results taken from US10954269B2, “Anti-inflammatory tripeptides” (Dr. August Wolff Gmbh & Co. KG Arzneimittel, priority 2013, dated 2021).

Key:
Conditions in all cases: substance 10^−9M
[1] = tested on: primary human T-cells; assay: Cytokine secretion on protein level in activated primary human T-cells (13-plex FACS / Luminex, supernatant); assay type: cell-based
Description: (§1) Primary T-cells were isolated from peripheral blood from healthy volunteers and from secondary lymphatic organs from naïve C57BL/6 mice, respectively. The cells were stimulated with phorbol-12-myristate-13-acetate (PMA)/Ionomycin and interferon-gamma (IFN-γ), respectively, for 48 h to activate the cells. The activated cells release pro-inflammatory cytokines. In parallel a human (HaCaT) keratinocyte cell line was activated with PMA/Ionomycin and IFN-γ, respectively, too. […] At the same time release of anti-inflammatory IL-10 was inhibited. Two days after addition of PMA/Ionomycin and IFN-γ, respectively, the induction of IL-1 secretion was determined in the supernatant for proving that the cells are activated. […] The anti-inflammatory properties of the tripeptides were determined 48 h and 72 h following stimulation. A 13-plex-system based FACS analysis was used for showing the reduced secretion of pro-inflammatory cytokines in the supernatant. Data for IL-1, IL-2, IL-6, IL-12p70 IL-17, IFN-γ and TNF-α are considered to be most relevant. Thus, analysis of the anti-inflammatory properties of the tripeptides is preferably based on the results obtained for these analytes. […] Using this method the gene expression of pro-inflammatory markers like IL-6, IL-17, IFN-γ and TNF-α was determined.
(§2) In a third experiment murine and human T cells and HaCaT cells were stimulated with PMA/Ionomycin and treated with Examples 14, 15, 16 and 17 at 10^−7 M, 10^−9 M and 10^−11 M. Cytokine concentrations (IFN-γ, IL-17 and IL-10 for T cells and IFN-γ for HaCat) were assessed in the supernatants using the Luminex technology. Expression of genes coding for Il-1β, IL-6 and TNF-α was determined. […] Moreover, concentrations of pro-inflammatory cytokines IFN-γ and IL-17 was reduced in the supernatants whereas the concentration of anti-inflammatory cytokine IL-10 was increased. […]
(§3) For the biological assay two human cell lines of different origin were chosen to allow for translation of the results obtained. A HaCaT cell is a cell type belonging to an immortal human keratinocyte line used in scientific research. Its use in research allows for the characterization of human keratinocyte using a model that is reproducible and representing a human epithelial cell line. In contrast human T-lymphocytes (T-cells) are a type of lymphocyte (itself a type of white blood cell) that play a central role in cell-mediated inflammation/immunity.

[2] = tested on: human keratinocyte cell line (HaCaT); assay: Cytokine secretion on protein level in activated human keratinocyte cell line HaCaT (13-plex FACS / Luminex, supernatant); assay type: cell-based
Description: as §1, §2, §3

[3] = tested on: primary murine T-cells; assay: Cytokine secretion on protein level in activated primary murine T-cells (13-plex FACS / Luminex, supernatant); assay type: cell-based, C57BL/6 mice
Description: as §1
In a third experiment murine and human T cells and HaCaT cells were stimulated with PMA/Ionomycin and treated with Examples 14, 15, 16 and 17 at 10^−7 M, 10^−9 M and 10^−11 M. Cytokine concentrations (IFN-γ, IL-17 and IL-10 for T cells and IFN-γ for HaCat) were assessed in the supernatants using the Luminex technology. Expression of genes coding for Il-1β, IL-6 and TNF-α was determined. […] Moreover, concentrations of pro-inflammatory cytokines IFN-γ and IL-17 was reduced in the supernatants whereas the concentration of anti-inflammatory cytokine IL-10 was increased.
The anti-inflammatory and immunomodulatory effects of selected examples of the present invention were compared with common immunosuppressants. Thus, cells activated with PMA/Ionomycin and IFN-γ, respectively, were stimulated with MMF or dexamethasone. Following stimulation the secretion of pro-inflammatory cytokines was analyzed on protein and gene level (Table 9 and FIGS. 4-6).

[4] = primary human T-cells stimulated with IFN-γ
[5] = primary human T-cells stimulated with PBS
[6] = primary human T-cells stimulated with PMA/Ionomycin
[7] = HaCaT stimulated with PMA/Ionomycin
[8] = primary murine T-cells stimulated with IFN-γ
[9] = primary murine T-cells stimulated with PBS
[10] = primary murine T-cells stimulated with PMA/Ionomycin

C[C@@H]1C[C@H]2[C@@H]3CCC4=CC(=O)C=C[C@]4(C)[C@@]3(F)[C@@H](O)C[C@]2(C)[C@@]1(O)C(=O)CO [dexamethasone, reference compound]
IL-1 cytokine concentration [1, 4]: 0 pg/mL | IL-2 cytokine concentration [1, 4]: 0 pg/mL | IL-4 cytokine concentration [1, 4]: 0 pg/mL | IL-5 cytokine concentration [1, 4]: 0 pg/mL | IL-6 cytokine concentration [1, 4]: 56.47 pg/mL | IL-9 cytokine concentration [1, 4]: 0 pg/mL | IL-10 cytokine concentration [1, 4]: 0 pg/mL | IL-12 cytokine concentration [1, 4]: 0 pg/mL | IL-13 cytokine concentration [1, 4]: 0 pg/mL | IL-17 cytokine concentration [1, 4]: 0 pg/mL | IL-22 cytokine concentration [1, 4]: 0 pg/mL | TNF-α cytokine concentration [1, 4]: 0 pg/mL | IFN-γ cytokine concentration [1, 5]: 0 pg/mL | IL-1 cytokine concentration [1, 5]: 0 pg/mL | IL-2 cytokine concentration [1, 5]: 0 pg/mL | IL-4 cytokine concentration [1, 5]: 0 pg/mL | IL-5 cytokine concentration [1, 5]: 0 pg/mL | IL-6 cytokine concentration [1, 5]: 80.63 pg/mL | IL-9 cytokine concentration [1, 5]: 13.05 pg/mL | IL-10 cytokine concentration [1, 5]: 45.66 pg/mL | IL-12 cytokine concentration [1, 5]: 0 pg/mL | IL-13 cytokine concentration [1, 5]: 55.12 pg/mL | IL-17 cytokine concentration [1, 5]: 69.45 pg/mL | IL-22 cytokine concentration [1, 5]: 0 pg/mL | TNF-a cytokine concentration [1, 5]: 41.45 pg/mL | IFN-γ cytokine concentration [1, 6]: 888.61 pg/mL | IL-1 cytokine concentration [1, 6]: 448.69 pg/mL | IL-2 cytokine concentration [1, 6]: 2198.45 pg/mL | IL-4 cytokine concentration [1, 6]: 79.02 pg/mL | IL-5 cytokine concentration [1, 6]: 297.13 pg/mL | IL-6 cytokine concentration [1, 6]: 1078.6 pg/mL | IL-9 cytokine concentration [1, 6]: 392.74 pg/mL | IL-10 cytokine concentration [1, 6]: 799.85 pg/mL | IL-12 cytokine concentration [1, 6]: 0 pg/mL | IL-13 cytokine concentration [1, 6]: 1099.59 pg/mL | IL-17 cytokine concentration [1, 6]: 1134.18 pg/mL | IL-22 cytokine concentration [1, 6]: 0 pg/mL | TNF-a cytokine concentration [1, 6]: 3264.56 pg/mL | IL-1 cytokine concentration ([2]; HaCaT stimulated with IFN-γ): 0 pg/mL | IL-2 cytokine concentration ([2]; HaCaT stimulated with IFN-γ): 0 pg/mL | IL-4 cytokine concentration ([2]; HaCaT stimulated with IFN-γ): 39.78 pg/mL | IL-5 cytokine concentration ([2]; HaCaT stimulated with IFN-γ): 0 pg/mL | IL-6 cytokine concentration ([2]; HaCaT stimulated with IFN-γ): 204.99 pg/mL | IL-9 cytokine concentration ([2]; HaCaT stimulated with IFN-γ): 0 pg/mL | IL-10 cytokine concentration ([2]; HaCaT stimulated with IFN-γ): 0 pg/mL | IL-12 cytokine concentration ([2]; HaCaT stimulated with IFN-γ): 0 pg/mL | IL-13 cytokine concentration ([2]; HaCaT stimulated with IFN-γ): 0 pg/mL | IL-17 cytokine concentration ([2]; HaCaT stimulated with IFN-γ): 69.14 pg/mL | IL-22 cytokine concentration ([2]; HaCaT stimulated with IFN-γ): 0 pg/mL | TNF-α cytokine concentration ([2]; HaCaT stimulated with IFN-γ): 0 pg/mL | IFN-γ cytokine concentration ([2]; HaCaT stimulated with PBS): 12.98 pg/mL | IL-1 cytokine concentration ([2]; HaCaT stimulated with PBS): 0 pg/mL | IL-2 cytokine concentration ([2]; HaCaT stimulated with PBS): 0 pg/mL | IL-4 cytokine concentration ([2]; HaCaT stimulated with PBS): 133.98 pg/mL | IL-5 cytokine concentration ([2]; HaCaT stimulated with PBS): 0 pg/mL | IL-6 cytokine concentration ([2]; HaCaT stimulated with PBS): 44.79 pg/mL | IL-9 cytokine concentration ([2]; HaCaT stimulated with PBS): 0 pg/mL | IL-10 cytokine concentration ([2]; HaCaT stimulated with PBS): 30.89 pg/mL | IL-12 cytokine concentration ([2]; HaCaT stimulated with PBS): 0 pg/mL | IL-13 cytokine concentration ([2]; HaCaT stimulated with PBS): 0 pg/mL | IL-17 cytokine concentration ([2]; HaCaT stimulated with PBS): 0 pg/mL | IL-22 cytokine concentration ([2]; HaCaT stimulated with PBS): 0 pg/mL | TNF-α cytokine concentration ([2]; HaCaT stimulated with PBS): 0 pg/mL | IFN-γ cytokine concentration [2, 7]: 0 pg/mL | IL-1 cytokine concentration [2, 7]: 0 pg/mL | IL-2 cytokine concentration [2, 7]: 0 pg/mL | IL-4 cytokine concentration [2, 7]: 91.48 pg/mL | IL-5 cytokine concentration [2, 7]: 0 pg/mL | IL-6 cytokine concentration [2, 7]: 124.98 pg/mL | IL-9 cytokine concentration [2, 7]: 0 pg/mL | IL-10 cytokine concentration [2, 7]: 54.10 pg/mL | IL-12 cytokine concentration [2, 7]: 0 pg/mL | IL-13 cytokine concentration [2, 7]: 0 pg/mL | IL-17 cytokine concentration [2, 7]: 0 pg/mL | IL-22 cytokine concentration [2, 7]: 0 pg/mL | TNF-α cytokine concentration [2, 7]: 0 pg/mL | IL-1 cytokine concentration [3, 8]: 64.89 pg/mL | IL-2 cytokine concentration [3, 8]: 70.49 pg/mL | IL-4 cytokine concentration [3, 8]: 61.11 pg/mL | IL-5 cytokine concentration [3, 8]: 208.28 pg/mL | IL-6 cytokine concentration [3, 8]: 108.76 pg/mL | IL-10 cytokine concentration [3, 8]: 905.55 pg/mL | IL-13 cytokine concentration [3, 8]: 0 pg/mL | IL-17 cytokine concentration [3, 8]: 52.48 pg/mL | IL-21 cytokine concentration [3, 8]: 0 pg/mL | IL-22 cytokine concentration [3, 8]: 37.13 pg/mL | IL-27 cytokine concentration [3, 8]: 21.29 pg/mL | TNF-α cytokine concentration [3, 8]: 32.32 pg/mL | IFN-γ cytokine concentration [3, 9]: 0 pg/mL | IL-1 cytokine concentration [3, 9]: 50.19 pg/mL | IL-2 cytokine concentration [3, 9]: 98.48 pg/mL | IL-4 cytokine concentration [3, 9]: 64.23 pg/mL | IL-5 cytokine concentration [3, 9]: 249.8 pg/mL | IL-6 cytokine concentration [3, 9]: 88.47 pg/mL | IL-10 cytokine concentration [3, 9]: 586.12 pg/mL | IL-13 cytokine concentration [3, 9]: 0 pg/mL | IL-17 cytokine concentration [3, 9]: 0 pg/mL | IL-21 cytokine concentration [3, 9]: 0 pg/mL | IL-22 cytokine concentration [3, 9]: 69.18 pg/mL | IL-27 cytokine concentration [3, 9]: 84.69 pg/mL | TNF-α cytokine concentration [3, 9]: 67.18 pg/mL | IFN-γ cytokine concentration [3, 10]: 1777.98 pg/mL | IL-1 cytokine concentration [3, 10]: 160.95 pg/mL | IL-2 cytokine concentration [3, 10]: 97.41 pg/mL | IL-4 cytokine concentration [3, 10]: 57.84 pg/mL | IL-5 cytokine concentration [3, 10]: 198.45 pg/mL | IL-6 cytokine concentration [3, 10]: 144.26 pg/mL | IL-10 cytokine concentration [3, 10]: 899.74 pg/mL | IL-13 cytokine concentration [3, 10]: 0 pg/mL | IL-17 cytokine concentration [3, 10]: 76.12 pg/mL | IL-21 cytokine concentration [3, 10]: 0 pg/mL | IL-22 cytokine concentration [3, 10]: 97.01 pg/mL | IL-27 cytokine concentration [3, 10]: 94.12 pg/mL | TNF-α cytokine concentration [3, 10]: 36.25 pg/mL
